# Paper PMC5662223, “Biophysical and functional characterization of the N-terminal domain of the cat T1R1 umami taste receptor expressed in Escherichia coli” (PLoS ONE, 2017)
# Entries after “also recorded” stand apart in the source; their conditions may differ.
# Assays:
# [1] = biological target: cT1R1-NTD (N-terminal domain of the cat T1R1 taste receptor) (Felis catus, UniProt A0ABI7Z2I4); experiment: Ligand binding assay by intrinsic tryptophan fluorescence of refolded cT1R1-NTD; conditions: for synergetic effect of IMP on L-amino acid binding (shift of binding curve): 0.3 μM IMP final concentration; for maximal amplitude of cT1R1-NTD fluorescence induced by the amino acid in presence of IMP: compared to the other tested L-amino acids
# Sequence of cT1R1-NTD (N-terminal domain of the cat T1R1 taste receptor) (A0ABI7Z2I4 entry or part of it): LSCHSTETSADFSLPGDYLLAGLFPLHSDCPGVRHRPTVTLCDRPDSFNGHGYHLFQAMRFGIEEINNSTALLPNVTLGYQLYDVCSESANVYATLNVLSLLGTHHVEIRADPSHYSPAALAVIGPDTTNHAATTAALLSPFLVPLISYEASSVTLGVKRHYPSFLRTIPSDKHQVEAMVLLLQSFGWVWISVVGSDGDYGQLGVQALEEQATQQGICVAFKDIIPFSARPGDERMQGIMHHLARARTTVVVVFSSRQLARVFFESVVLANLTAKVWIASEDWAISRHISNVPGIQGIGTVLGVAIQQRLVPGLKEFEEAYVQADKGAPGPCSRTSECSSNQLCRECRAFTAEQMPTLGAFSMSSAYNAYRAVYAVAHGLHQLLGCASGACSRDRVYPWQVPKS
# Experimental: The intrinsic fluorescence of cT1R1-NTD was measured as previously described by Nie et al. using a Cary Eclipse spectrofluorometer (Varian Instruments) equipped with a Peltier temperature control unit. Sample proteins were excited at 295 nm and emission spectra were recorded from 300 to 400 nm, with 5-nm and 10-nm bandwidth for emission and excitation, respectively. For titration experiments, fluorescence spectra were recorded using 0.5 μM protein solution in 50 mM Tris-HCl pH 8.0, 150 mM NaCl, 1mM DTT and 0.1 mM DDM. Ligand solutions were freshly prepared in the same buffer. Successive aliquots of potential ligands were added to 400 μL of cT1R1-NTD solution. The temperature was kept constant at 20°C. Fluorescence measurements were corrected for dilution, bleaching and nonspecific buffer quenching. Kd values and standard errors were calculated from a plot of the ratio between the fluorescence intensity variation and the maximum of fluorescence intensity variation versus concentration of total ligand, obtained with a standard non-linear regression method and using one site saturation ligand binding equation using SigmaPlot software. […] The Kd values of ligand-receptor interactions were determined using Eq (1) ΔF/ΔFmax = Bmax×[L]/(Kd+[L]) (1) Where Kd value is the apparent dissociation constant, ΔF is the difference between the fluorescence intensity at a given concentration of ligand and the fluorescence intensity in the absence of ligand, and ΔFmax is the difference at infinite ligand concentration [L], Bmax is the maximum fluorescence signal, [L] corresponds to the concentration of ligands. The reported Kd values are the average of more than nine measurements performed on at least three independently refolded protein samples. […] Statistical analyses: Dunnett’s test was used to determine the statistical significance between data means.
# human T1R3-NTD = biological target: human T1R3-NTD; parameters: method as in PMID 22450161, PMID 22909933; conditions: cited from earlier work
# [2] = ligand alone, no IMP, Fig 6: 100 μM final concentration, excitation 295 nm, emission 340 nm
Structure (SMILES),synergetic effect of IMP on L-amino acid binding (shift of binding curve) [1],"effect on cT1R1-NTD intrinsic fluorescence [1, 2]",also measured
"Nc1nc2c(ncn2[C@@H]2O[C@H](COP(=O)(O)O)[C@@H](O)[C@H]2O)c(=O)[nH]1 [GMP, guanosine-5’-monophosphate]",–,–,effect on cT1R1-NTD intrinsic fluorescence ([1]; GMP alone at low concentrations (below 1 μM)): fluorescence enhancement
"C[C@H](N)C(=O)O [L-Ala, L-alanine]",relatively modest,saturable intrinsic fluorescent enhancement,–
N=C(N)NCCC[C@H](N)C(=O)O [L-Arg],relatively modest,saturable intrinsic fluorescent enhancement,maximal amplitude of cT1R1-NTD fluorescence induced by the amino acid in presence of IMP ([1]; 0.3 μM IMP): increased
N[C@@H](CS)C(=O)O [L-Cys],–,no effect; also recorded: does not affect cT1R1-NTD fluorescence,"fluorescence enhancement of cT1R1-NTD generated by 0.3 μM IMP in the presence of the amino acid ([1]; 0.3 μM IMP, compared with absence of L-Cys): not significantly different"
"N[C@@H](Cc1c[nH]cn1)C(=O)O [L-His, L-histidine]",more pronounced,saturable intrinsic fluorescent enhancement,maximal amplitude of cT1R1-NTD fluorescence induced by the amino acid in presence of IMP ([1]; 0.3 μM IMP): increased
CC[C@H](C)[C@H](N)C(=O)O [L-Ile],relatively modest,saturable intrinsic fluorescent enhancement,–
OC[C@H]1O[C@H](O[C@]2(CCl)O[C@H](CCl)[C@@H](O)[C@@H]2O)[C@H](O)[C@@H](O)[C@H]1Cl [sucralose],–,–,binding affinity (human T1R3-NTD): millimolar range
